Data as given in patent publication US20240327458A1, “MACROCYCLIC PEPTIDOMIMETIC PROTEASE INHIBITOR AND USE THEREOF” (TENCENT TECHNOLOGY (SHENZHEN) COMPANY LIMITED, priority 2022, published 2024).
Where two headings read alike, the source gives them in different places.

Columns and labels:
M^pro = M^pro (Severe acute respiratory syndrome coronavirus 2 (2019-nCoV) (SARS-CoV-2), UniProt P0DTD1); settings: read-out: M^pro IC50; GST-AVLQ-3Clpro-GP-6His; substrate MCA-AVLQSGFR-Lys(Dnp)-Lys-NH2; Ex320/Em405
Text: An objective of this experiment is to detect the in vitro inhibitory activity against M^pro of the compound of the present disclosure.
Experimental steps and methods: • 1. Prepare a 1× buffer solution (modified Tris buffer solution). • 2. Transfer a to-be-tested compound to the assay plate with Echo's 100% DMSO solution to a final DMSO content of 0.5%. • 3. Prepare a mixed protein solution: Add GST-AVLQ-3Clpro-GP-6His in a 1× assay buffer solution to support the mixed protein solution. • 4. […] Add 10 μL of 2× mixed protein solution in the assay plate, centrifuge for 30s, shake for 30s, and incubate the solution at room temperature for 15 min. • 6. Add 10 μL of 2× mixed substrate solution in the assay plate, centrifuge for 30, and shake for 30s. • 7. Read the data dynamically on Synergy (Ex320/Em405).

[1] = rcm bond, Grubbs 2nd generation catalyst, dichloromethane, 25.0 °C

**Q.** With `CC1(C)[C@@H]2[C@H]3C(=O)N[C@H](C#N)CCC(=O)NCCCCCCC[C@H](NC(=O)C(F)(F)F)C(=O)N3C[C@@H]21` [Compound 1, N-((3S, 15S, 18aS, 19aR, 19bS)-3-cyano-19,19-dimethyl-1,6,16-trioxyeicosanylhydro-2H-cyclopropyl[3,4]pyrrole[1,2-a][1,4, 9]triazocyclooctadecyl-15-yl)-2,2,2-trifluoroacetamide] as the compound, how does the IC50 (M^pro) read?
**A.** The IC50 was 254 nM.

**Q.** With `COC(=O)[C@@H]1CCC(=O)NCCCC=CCC[C@H](NC(=O)OC(C)(C)C)C(=O)N2C[C@H]3[C@@H]([C@H]2C(=O)N1)C3(C)C` as the compound, how does the ring closure, yield of all isomers ([1]; from C=CCCCNC(=O)CC[C@H](NC(=O)[C@@H]1[C@@H]2[C@H](CN1C(=O)[C@H](CCC=C)NC(=O)OC(C)(C)C)C2(C)C)C(=O)OC, 1.73 mM, 16.0 h) read?
**A.** Its ring closure, yield of all isomers is 86%.

**Q.** Which ring closure, yield of all isomers ([1]; from C=CCCCNC(=O)CC[C@H](NC(=O)[C@@H]1[C@@H]2[C@H](CN1C(=O)[C@H](CCCC=C)NC(=O)OC(C)(C)C)C2(C)C)C(=O)OC, 4.53 mM, 2.0 h) does the source give for `COC(=O)[C@@H]1CCC(=O)NCCCC=CCCC[C@H](NC(=O)OC(C)(C)C)C(=O)N2C[C@H]3[C@@H]([C@H]2C(=O)N1)C3(C)C` here?
**A.** The ring closure, yield of all isomers was 60%.

**Q.** With `CC1(C)[C@@H]2[C@H]3C(=O)N[C@H](C#N)CCC(=O)NCCC/C=C\CC[C@H](NC(=O)C(F)(F)F)C(=O)N3C[C@@H]21` [Compound 4, N-((3S, 15S, 18aS, 19aR, 19bS, Z)-3-cyano-19,19-dimethyl-1,6,16-trioxo-1,3,4,5,6,7,8,9,10,13,14,15,16,18,18a,19,19a,19b-octadecahydro-2H-cyclopropane[3,4]pyrrole[1,2-a][1,4,9]triazacyclooctadecene-15-yl)-2,2,2-trifluoroacetamide] as the compound, how does the IC50 (M^pro) read?
**A.** The IC50 was 411 nM.

**Q.** Which ring closure, yield of all isomers ([1]; from C=CCCCN(C)C(=O)CC[C@H](NC(=O)[C@@H]1[C@@H]2[C@H](CN1C(=O)[C@H](CCC=C)NC(=O)OC(C)(C)C)C2(C)C)C(=O)OC, 5.1 mM, 16.0 h) does the source give for `COC(=O)[C@@H]1CCC(=O)N(C)CCCC=CCC[C@H](NC(=O)OC(C)(C)C)C(=O)N2C[C@H]3[C@@H]([C@H]2C(=O)N1)C3(C)C` here?
**A.** The ring closure, yield of all isomers was 94%.

**Q.** Which IC50 (M^pro) does the source give for `CC1(C)[C@@H]2[C@H]3C(=O)N[C@H](C#N)CCC(=O)NCCCCCCCC[C@H](NC(=O)C(F)(F)F)C(=O)N3C[C@@H]21` [Compound 6, N-((3S, 16S, 19aS, 20aR, 20bS)-3-cyano-20,20-dimethyl-1,6,17-trioxydocosanylhydrocyclopropa[3,4]pyrrole[1,2-a][1,4,9]triazacyclononanedioic acid-16-yl)-2,2,2-trifluoroacetamide] here?
**A.** Its IC50 is 379 nM.

**Q.** With `COC(=O)[C@@H]1CCC(=O)NCCCC=CC[C@H](NC(=O)OC(C)(C)C)C(=O)N2C[C@H]3[C@@H]([C@H]2C(=O)N1)C3(C)C` as the compound, how does the ring closure, yield of all isomers ([1]; from C=CCCCNC(=O)CC[C@H](NC(=O)[C@@H]1[C@@H]2[C@H](CN1C(=O)[C@H](CC=C)NC(=O)OC(C)(C)C)C2(C)C)C(=O)OC, 3.53 mM, 16.0 h) read?
**A.** The ring closure, yield of all isomers was 100%.

**Q.** For `COC(=O)[C@@H]1CCC(=O)NCCCC=CC[C@H](NC(=O)OC(C)(C)C)C(=O)N2C[C@@H]3CCC[C@@H]3[C@H]2C(=O)N1`, which ring closure, yield of all isomers ([1]; from C=CCCCNC(=O)CC[C@H](NC(=O)[C@@H]1[C@H]2CCC[C@H]2CN1C(=O)[C@H](CC=C)NC(=O)OC(C)(C)C)C(=O)OC, 3.75 mM, 16.0 h) is on record?
**A.** The ring closure, yield of all isomers was 94%.

**Q.** For `COC(=O)[C@@H]1CCC(=O)NCCC=Cc2cccc(c2)[C@H](NC(=O)OC(C)(C)C)C(=O)N2C[C@H]3[C@@H]([C@H]2C(=O)N1)C3(C)C`, which ring closure, yield of all isomers ([1]; from C=CCCNC(=O)CC[C@H](NC(=O)[C@@H]1[C@@H]2[C@H](CN1C(=O)[C@@H](NC(=O)OC(C)(C)C)c1cccc(C=C)c1)C2(C)C)C(=O)OC, 3.55 mM, 16.0 h) is on record?
**A.** The ring closure, yield of all isomers was 20%.

**Q.** For `CC1(C)[C@@H]2[C@H]3C(=O)N[C@H](C#N)CCC(=O)NCCCCCC[C@H](NC(=O)C(F)(F)F)C(=O)N3C[C@@H]21` [Compound 7, N-((3S, 14S, 17aS, 18aR, 18bS)-3-cyano-18,18-dimethyl-1,6,15-trioxyeicosanylhydrocyclopropyl[3,4]pyrrole[1,2-a][1,4,9]triazacycloheptanedioic acid-14-yl)-2,2,2-trifluoroacetamide], which IC50 (M^pro) is on record?
**A.** The IC50 was 16 nM.

**Q.** Which IC50 (M^pro) does the source give for `CC1(C)[C@@H]2[C@H]3C(=O)N[C@H](C#N)CCC(=O)NCCC/C=C/CCC[C@H](NC(=O)C(F)(F)F)C(=O)N3C[C@@H]21` [Compound 8b, N-((3S, 16S, 19aS, 20aR, 20bS, Z/E)-3-cyano-20,20-dimethyl-1,6,17-trioxo-1,2,3,4,5,6,7,8,9,10,13,14,15,16,17,19,19a,20,20a,20b-eicosanylhydrocyclopropyl[3,4]pyrrole[1,2-a][1,4,9]triazacyclonon-16-yl)-2,2,2-trifluoroacetamide] here?
**A.** The IC50 was 138 nM.
